Data: US20200131669A1, “CYCLIC PEPTIDE COMPOUND HAVING HIGH MEMBRANE PERMEABILITY, AND LIBRARY CONTAINING SAME” (Chugai Seiyaku Kabushiki Kaisha, priority 2017, published 2020)
Starred links: 1 amine or outer side, 2 acyl side, 3 side chain; linkers in the order of their positions; H or OH if unused. Positions of bridges follow the written chain, without caps; N, C: chain ends. Non-standard residues stand in square brackets, D forms with d. Residues, ends and D or L forms follow the SMILES beside them. ξ: configuration not given here. *: point of attachment. X7 = CC(C(=O)[C@H](Cc1ccccc1)N(C)[*:1])[C@@H](Cc1ccccc1)C(=O)[*:2]; X6 = CN([C@@H](CCN1CCC(F)(F)CC1)C(=O)[*:2])[*:1]; Glu(NHSO2Me) = CS(=O)(=O)NC(=O)CC[C@H](N)C(=O)O; Phe(4-CF3) = N[C@@H](Cc1ccc(C(F)(F)F)cc1)C(=O)O; 3Pal(6-NMe2) = CN(C)c1ccc(C[C@H](N)C(=O)O)cn1; NMePhe(3-Cl) = CN[C@@H](Cc1cccc(Cl)c1)C(=O)O; NMePhe(4-Cl) = CN[C@@H](Cc1ccc(Cl)cc1)C(=O)O; X14 = O=C([C@H](CCc1ccccc1Cl)N[*:1])[*:2]; hhPhe = N[C@@H](CCCc1ccccc1)C(=O)O; NMeF = CN[C@@H](Cc1ccccc1)C(=O)O; NMeI = CC[C@H](C)[C@H](NC)C(=O)O; ξThr(3R) = C[C@@H](O)C(N)C(=O)O; NMeD = CN[C@@H](CC(=O)O)C(=O)O; aThr = C[C@H](O)[C@H](N)C(=O)O; NMeL = CN[C@@H](CC(C)C)C(=O)O; NMeV = CN[C@H](C(=O)O)C(C)C; NMeA = CN[C@@H](C)C(=O)O; Piperidide = C1CCN(*)CC1; dNMeA = CN[C@H](C)C(=O)O; NBuGly = CCCCNCC(=O)O; X2 = Fc1cncc(C*)c1; Bn = c1ccc(C*)cc1; NEtG = CCNCC(=O)O; Sar = CNCC(=O)O; tBu = CC(C)(C)*

Experiment: Caco-2 membrane permeability, improved method as used in the following Examples (96-well, 20 to 24 h preincubation)
Format: in vitro ADME
Conditions: human, Caco-2, Caco-2
Summary of the method: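 Caco-2 monolayers were grown three weeks and preincubated 20–24 h at 37 °C with compound in DMEM+FaSSIF (1% DMSO) apically. The assay then used compound in FaSSIF/HBSS (1% DMSO, pH 6.0) apically and HBSS with 4% BSA (pH 7.4) basally. Basal samples were taken at 180 min for LC/MS, and Papp (cm/sec) was calculated.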
In the case of CC(C)C[C@H]1C(=O)N[C@@H](COC(C)(C)C)C(=O)N(C)[C@@H](Cc2ccccc2)C(=O)N(C)[C@@H](C(C)C)C(=O)N[C@H](C(=O)N2CCCCC2)CC(=O)N[C@H](C(C)C)C(=O)N(C)[C@@H](Cc2ccccc2)C(=O)N[C@@H](COCc2cncc(F)c2)C(=O)N(C)[C@@H](CC(C)C)C(=O)N[C@@H]([C@@H](C)O)C(=O)N(C)CC(=O)N1C [pd346] ([dV][NMeF]S(X2)[NMeL]T[Sar][NMeL]S(tBu)[NMeF][NMeV]D-Piperidide; lactam N-11), the Papp A→B at 180 min is reported as 2.4 ×10⁻⁶ cm/s. For CCCCN1CC(=O)N(C)[C@@H](CC(C)C)C(=O)N[C@@H](CC(C)C)C(=O)N(C)[C@@H](Cc2ccccc2)C(=O)N(C)[C@@H](C(C)C)C(=O)N[C@H](C(=O)N2CCCCC2)CC(=O)N[C@H](CC(C)C)C(=O)N(C)[C@@H](Cc2cccc(Cl)c2)C(=O)N[C@@H](CCC(=O)NS(C)(=O)=O)C(=O)N(C)[C@@H](CC(C)C)C(=O)NC([C@@H](C)O)C1=O (stereo partly drawn) [pd59] ([dL][NMePhe(3-Cl)][Glu(NHSO2Me)][NMeL][ξThr(3R)][NBuGly][NMeL]L[NMeF][NMeV]D-Piperidide; lactam N-11), the Papp A→B at 180 min was < 0.0088 ×10⁻⁶ cm/s. CCCCN1CC(=O)N(C)[C@@H](CC(C)C)C(=O)N[C@@H](CC(C)C)C(=O)N(C)[C@@H](Cc2ccccc2)C(=O)N(C)[C@@H](C)C(=O)N[C@H](C(=O)N2CCCCC2)CC(=O)N[C@H](C(C)C)C(=O)N(C)[C@@H](Cc2ccccc2)C(=O)N[C@@H](CC(C)C)C(=O)N(C)[C@@H](CCN2CCC(F)(F)CC2)C(=O)N[C@@H]([C@@H](C)O)C1=O [pd394] ([dV][NMeF]L[X6]T[NBuGly][NMeL]L[NMeF][NMeA]D-Piperidide; lactam N-11) showed a Papp A→B at 180 min of 1.8 ×10⁻⁶ cm/s. Molecule CC(C)C[C@H]1C(=O)N[C@H](C(=O)N2CCCCC2)CC(=O)N(C)[C@@H](C)C(=O)N[C@@H](CCc2ccccc2Cl)C(=O)N(C)[C@@H](CC(C)C)C(=O)N(C)[C@@H](CC(C)C)C(=O)N[C@@H](C)C(=O)N(C)[C@@H](Cc2ccccc2)C(=O)N(C)[C@@H](C(C)C)C(=O)N[C@@H]([C@@H](C)O)C(=O)N(C)CC(=O)N1C [pd353] ([NMeA][X14][NMeL][NMeL]A[NMeF][NMeV]T[Sar][NMeL]D-Piperidide; lactam N-11) has a Papp A→B at 180 min of 1.4 ×10⁻⁶ cm/s.

Same assay, conditions: human, Caco-2, Caco-2 (cm/sec)
With CC(C)C[C@H]1C(=O)N[C@@H](COC(C)(C)C)C(=O)N(C)[C@@H](Cc2ccccc2)C(=O)N(C)[C@@H](CC(C)C)C(=O)N(C)[C@H](C(=O)N2CCCCC2)CC(=O)N(C)[C@H](C)C(=O)N(C)[C@@H](Cc2cccc(Cl)c2)C(=O)N[C@@H](C(C)C)C(=O)N(C)[C@@H](C(C)C)C(=O)N[C@@H]([C@@H](C)O)C(=O)N(C)CC(=O)N1C [pd168] ([dNMeA][NMePhe(3-Cl)]V[NMeV]T[Sar][NMeL]S(tBu)[NMeF][NMeL][NMeD]-Piperidide; lactam N-11) the Papp A→B at 180 min was 2.3 ×10⁻⁶ cm/s. CC(C)C[C@H]1C(=O)N[C@@H](COC(C)(C)C)C(=O)N(C)[C@@H](Cc2ccccc2)C(=O)N(C)[C@@H](C)C(=O)N[C@H](C(=O)N2CCCCC2)CC(=O)N[C@H](C(C)C)C(=O)N(C)[C@@H](Cc2ccccc2)C(=O)N[C@@H](CCCc2ccccc2)C(=O)N(C)[C@@H](CC(C)C)C(=O)N[C@@H]([C@@H](C)O)C(=O)N(C)CC(=O)N1C [pd192] ([dV][NMeF][hhPhe][NMeL]T[Sar][NMeL]S(tBu)[NMeF][NMeA]D-Piperidide; lactam N-11) gave a Papp A→B at 180 min of 1.1 ×10⁻⁶ cm/s. With CCN1CC(=O)N[C@@H]([C@@H](C)O)C(=O)N(C)[C@@H](CC(C)C)C(=O)N(C)[C@@H](CC(C)C)C(=O)N[C@@H](Cc2ccc(C(F)(F)F)cc2)C(=O)N[C@H](C(=O)N2CCCCC2)CC(=O)N[C@@H](COC(C)(C)C)C(=O)N(C)[C@@H](CC(C)C)C1=O [pd143] (S(tBu)[NMeL][NEtG]T[NMeL][NMeL][Phe(4-CF3)]D-Piperidide; lactam N-8) the Papp A→B at 180 min was 1.1 ×10⁻⁶ cm/s. CC(C)C[C@@H]1NC(=O)C[C@@H](C(=O)N2CCCCC2)N(C)C(=O)[C@H](Cc2ccc(C(F)(F)F)cc2)NC(=O)[C@H](CC(C)C)N(C)C(=O)CN(C)C(=O)[C@H]([C@@H](C)O)NC(=O)[C@H](CC(C)C)N(C)C(=O)[C@H](CC(C)C)N(C)C1=O [pd151] (L[NMeL][NMeL]T[Sar][NMeL][Phe(4-CF3)][NMeD]-Piperidide; lactam N-8) gave a Papp A→B at 180 min of 3.2 ×10⁻⁶ cm/s. CC[C@H](C)[C@H]1C(=O)N[C@@H](Cc2c[nH]c3ccccc23)C(=O)N(C)CC(=O)N(C)[C@@H](C)C(=O)N[C@H](C(=O)N2CCCCC2)CC(=O)N(C)[C@@H](C)C(=O)N[C@@H](CC(C)C)C(=O)N(C)[C@@H](CC(C)C)C(=O)N(C)[C@@H](CC(C)C)C(=O)N[C@@H](C)C(=O)N(C)[C@@H](CC(C)C)C(=O)N1C [pd101] ([NMeA]L[NMeL][NMeL]A[NMeL][NMeI]W[Sar][NMeA]D-Piperidide; lactam N-11) showed a Papp A→B at 180 min of 0.13 ×10⁻⁶ cm/s. For CC[C@H](C)[C@@H]1NC(=O)[C@H](Cc2ccccc2)N(C)C(=O)[C@H]([C@@H](C)O)NC(=O)[C@@H](C)NC(=O)C[C@@H](C(=O)N(C)[C@@H](Cc2ccccc2)C(=O)N(C)[C@@H](Cc2ccccc2)C(=O)N[C@@H](C)C(=O)N2CCCCC2)NC(=O)[C@H](CC(C)C)N(C)C(=O)[C@H](CC(C)C)N(C)C(=O)[C@H](Cc2ccccc2)N(C)C(=O)[C@H](CC(C)C)N(C)C(=O)[C@H](C)N(C)C1=O [pd242] ([dA]T[NMeF]I[NMeA][NMeL][NMeF][NMeL][NMeL]D[NMeF][NMeF]A-Piperidide; lactam N-10), the Papp A→B at 180 min was 0.058 ×10⁻⁶ cm/s. For CC(C)C[C@@H]1NC(=O)[C@H](Cc2ccccc2)N(C)C(=O)[C@@H](C)NC(=O)C[C@@H](C(=O)N2CCCCC2)N(C)C(=O)[C@H](Cc2ccccc2)N(C)C(=O)[C@H](Cc2ccccc2)N(C)C(=O)[C@H](COC(C)(C)C)NC(=O)[C@H](CC(C)C)N(C)C(=O)CN(C)C(=O)[C@H]([C@@H](C)O)NC(=O)[C@H](CC(C)C)N(C)C1=O [pd224] ([dA][NMeF]L[NMeL]T[Sar][NMeL]S(tBu)[NMeF][NMeF][NMeD]-Piperidide; lactam N-11), the Papp A→B at 180 min was 1 ×10⁻⁶ cm/s. CC[C@H](C)[C@@H]1NC(=O)[C@H](Cc2ccc(Cl)cc2)N(C)C(=O)CN(C)C(=O)C[C@@H](C(=O)N2CCCCC2)NC(=O)[C@H](C(C)C)N(C)C(=O)[C@H](COC(C)(C)C)NC(=O)[C@H](CC(C)C)N(C)C(=O)[C@H](Cc2ccccc2)N(C)C(=O)CN(C)C(=O)[C@H]([C@@H](C)O)NC(=O)[C@H](CC(C)C)N(C)C1=O [pd176] ([Sar][NMePhe(4-Cl)]I[NMeL]T[Sar][NMeF][NMeL]S(tBu)[NMeV]D-Piperidide; lactam N-11) showed a Papp A→B at 180 min of 1.2 ×10⁻⁶ cm/s. With CC(C)C[C@@H]1NC(=O)[C@H](Cc2cccc(Cl)c2)N(C)C(=O)[C@@H](C)NC(=O)C[C@@H](C(=O)N2CCCCC2)NC(=O)[C@H](CC(C)C)N(C)C(=O)[C@H](Cc2ccccc2)N(C)C(=O)[C@H](COC(C)(C)C)NC(=O)[C@H](C(C)C)N(C)C(=O)CN(C)C(=O)[C@H]([C@@H](C)O)NC(=O)[C@H](CC(C)C)N(C)C1=O [pd157] ([dA][NMePhe(3-Cl)]L[NMeL]T[Sar][NMeV]S(tBu)[NMeF][NMeL]D-Piperidide; lactam N-11) the Papp A→B at 180 min was 2.2 ×10⁻⁶ cm/s.

Same assay, conditions: human, Caco-2, Papp; Table 23-1, sequences where ARC = 3; read-out: Caco-2
CC(C)C[C@@H]1NC(=O)[C@H](Cc2ccccc2)N(C)C(=O)[C@@H]2CCCN2C(=O)C[C@@H](C(=O)N2CCCCC2)N(C)C(=O)[C@H](Cc2ccccc2)C(C)C(=O)[C@H](Cc2ccccc2)N(C)C(=O)[C@H](COC(C)(C)C)NC(=O)[C@H](C(C)C)N(C)C(=O)CN(C)C(=O)[C@H]([C@@H](C)O)NC(=O)[C@H](CC(C)C)N(C)C1=O (some centres unmarked) [pd196] (P[NMeF]L[NMeL]T[Sar][NMeV]S(tBu)[X7][NMeD]-Piperidide; lactam N-10) showed a Papp A→B at 180 min of 4 ×10⁻⁶ cm/s.

Same assay, conditions: human, Caco-2; read-out: Caco-2
Molecule CC[C@H](C)[C@@H]1NC(=O)[C@H](CC(C)C)N(C)C(=O)[C@H](C)N(C)C(=O)[C@H]([C@H](C)O)NC(=O)[C@H](Cc2ccccc2)N(C)C(=O)[C@H](C)N(C)C(=O)[C@@H](C)N(C)C(=O)C[C@@H](C(=O)N(C)[C@@H](Cc2ccccc2)C(=O)N(C)[C@@H](Cc2ccccc2)C(=O)N[C@@H](C)C(=O)N2CCCCC2)NC(=O)[C@H](C(C)C)N(C)C(=O)[C@H](CC(C)C)N(C)C1=O [pd201] ([dNMeA][NMeA][NMeF][aThr][NMeA][NMeL]I[NMeL][NMeV]D[NMeF][NMeF]A-Piperidide; lactam N-10) has a Papp A→B at 180 min of 2.3 ×10⁻⁶ cm/s.

Same assay, conditions: human; Papp, Caco-2 membrane permeability, improved method; read-out: Caco-2
Molecule CC(C)C[C@@H]1NC(=O)[C@H](C)N(C)C(=O)C[C@@H](C(=O)N2CCCCC2)NC(=O)[C@H](CC(C)C)N(C)C(=O)CN(C)C(=O)[C@H]([C@@H](C)O)NC(=O)[C@H](C)N(C)C(=O)[C@H](Cc2ccccc2)N(C)C(=O)[C@H](COCc2ccccc2)NC(=O)[C@H](Cc2ccccc2)N(C)C(=O)[C@H](CC(C)C)N(C)C1=O [pd368] ([NMeA]L[NMeL][NMeF]S(Bn)[NMeF][NMeA]T[Sar][NMeL]D-Piperidide; lactam N-11) has a Papp A→B at 180 min of 2 ×10⁻⁶ cm/s. Molecule CCCCN1CC(=O)N(C)[C@@H](CC(C)C)C(=O)N[C@H](C(=O)N2CCCCC2)CC(=O)N(C)[C@@H](C)C(=O)N[C@@H](Cc2ccc(N(C)C)nc2)C(=O)N(C)[C@@H](CC(C)C)C(=O)N(C)[C@@H](Cc2ccccc2)C(=O)N[C@@H](CC(C)C)C(=O)N(C)[C@@H](C)C(=O)N(C)[C@@H](CC(C)C)C(=O)N[C@@H]([C@@H](C)O)C1=O [pd398] ([NMeA][3Pal(6-NMe2)][NMeL][NMeF]L[NMeA][NMeL]T[NBuGly][NMeL]D-Piperidide; lactam N-11) has a Papp A→B at 180 min of 2.7 ×10⁻⁶ cm/s.
